Data on three compounds can be found in paper PMC4685510, “A Cell Biologist’s Field Guide to Aurora Kinase Inhibitors” (Frontiers in Oncology, 2015).

Holding throughout (assay): biochemical
Holding throughout (format): biochemical

In experiment [1] the target is 363 human kinases (including Aurora A/B/C) (Homo sapiens, UniProt Q86Z02). Conditions: HIPK1; for remaining activity at 0.5 µM / remaining activity at 0.1 µM: read-out: % Enzyme Activity (relative to DMSO controls); for remaining activity at 0.1 µM: 100 nM.
Sequence of 363 human kinases (including Aurora A/B/C) (Homo sapiens, UniProt Q86Z02) (Q86Z02 whole entry): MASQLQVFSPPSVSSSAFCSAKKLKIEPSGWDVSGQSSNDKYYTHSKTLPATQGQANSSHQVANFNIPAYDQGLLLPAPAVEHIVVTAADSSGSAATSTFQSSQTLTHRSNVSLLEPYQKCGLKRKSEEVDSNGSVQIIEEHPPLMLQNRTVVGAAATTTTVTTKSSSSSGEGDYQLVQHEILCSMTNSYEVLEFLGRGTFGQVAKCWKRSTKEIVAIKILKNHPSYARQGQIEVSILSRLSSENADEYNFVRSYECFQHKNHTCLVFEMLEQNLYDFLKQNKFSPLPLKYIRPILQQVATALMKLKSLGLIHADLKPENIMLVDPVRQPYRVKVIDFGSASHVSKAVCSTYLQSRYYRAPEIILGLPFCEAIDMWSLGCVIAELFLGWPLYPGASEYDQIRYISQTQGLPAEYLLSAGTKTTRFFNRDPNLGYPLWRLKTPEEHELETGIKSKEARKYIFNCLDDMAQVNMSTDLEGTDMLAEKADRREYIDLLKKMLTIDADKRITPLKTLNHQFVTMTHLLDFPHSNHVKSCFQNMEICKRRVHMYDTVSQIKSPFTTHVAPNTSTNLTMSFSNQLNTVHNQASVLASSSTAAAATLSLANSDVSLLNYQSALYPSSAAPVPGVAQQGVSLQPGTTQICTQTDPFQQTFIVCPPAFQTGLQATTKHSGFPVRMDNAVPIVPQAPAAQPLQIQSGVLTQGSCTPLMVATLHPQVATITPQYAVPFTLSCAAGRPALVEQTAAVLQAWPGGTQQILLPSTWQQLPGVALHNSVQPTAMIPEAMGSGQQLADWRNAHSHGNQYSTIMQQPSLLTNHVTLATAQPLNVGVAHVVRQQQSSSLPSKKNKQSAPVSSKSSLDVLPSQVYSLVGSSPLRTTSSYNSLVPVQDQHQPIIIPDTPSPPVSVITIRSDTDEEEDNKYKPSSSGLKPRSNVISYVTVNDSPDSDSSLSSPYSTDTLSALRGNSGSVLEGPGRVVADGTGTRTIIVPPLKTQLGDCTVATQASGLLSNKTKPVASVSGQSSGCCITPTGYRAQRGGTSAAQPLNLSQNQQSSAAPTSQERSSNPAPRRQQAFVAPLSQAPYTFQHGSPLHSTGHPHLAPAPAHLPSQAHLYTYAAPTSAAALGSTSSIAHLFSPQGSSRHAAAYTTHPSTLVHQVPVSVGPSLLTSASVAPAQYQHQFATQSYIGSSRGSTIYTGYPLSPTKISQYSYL
Text: (§1) However, the Aurora A/B selectivity ratios derived from our in vitro and in vivo data can be compared to prioritize inhibitors.
Experiment [2] deals with 363 human kinases (including Aurora A/B/C) (Homo sapiens, UniProt P21802). To be noted: FGFR2, [ATP] 5 µM; for remaining activity at 0.5 µM / remaining activity at 0.1 µM: read-out: % Enzyme Activity (relative to DMSO controls); for remaining activity at 0.1 µM: 100 nM.
Sequence of 363 human kinases (including Aurora A/B/C) (Homo sapiens, UniProt P21802) (P21802 22-821): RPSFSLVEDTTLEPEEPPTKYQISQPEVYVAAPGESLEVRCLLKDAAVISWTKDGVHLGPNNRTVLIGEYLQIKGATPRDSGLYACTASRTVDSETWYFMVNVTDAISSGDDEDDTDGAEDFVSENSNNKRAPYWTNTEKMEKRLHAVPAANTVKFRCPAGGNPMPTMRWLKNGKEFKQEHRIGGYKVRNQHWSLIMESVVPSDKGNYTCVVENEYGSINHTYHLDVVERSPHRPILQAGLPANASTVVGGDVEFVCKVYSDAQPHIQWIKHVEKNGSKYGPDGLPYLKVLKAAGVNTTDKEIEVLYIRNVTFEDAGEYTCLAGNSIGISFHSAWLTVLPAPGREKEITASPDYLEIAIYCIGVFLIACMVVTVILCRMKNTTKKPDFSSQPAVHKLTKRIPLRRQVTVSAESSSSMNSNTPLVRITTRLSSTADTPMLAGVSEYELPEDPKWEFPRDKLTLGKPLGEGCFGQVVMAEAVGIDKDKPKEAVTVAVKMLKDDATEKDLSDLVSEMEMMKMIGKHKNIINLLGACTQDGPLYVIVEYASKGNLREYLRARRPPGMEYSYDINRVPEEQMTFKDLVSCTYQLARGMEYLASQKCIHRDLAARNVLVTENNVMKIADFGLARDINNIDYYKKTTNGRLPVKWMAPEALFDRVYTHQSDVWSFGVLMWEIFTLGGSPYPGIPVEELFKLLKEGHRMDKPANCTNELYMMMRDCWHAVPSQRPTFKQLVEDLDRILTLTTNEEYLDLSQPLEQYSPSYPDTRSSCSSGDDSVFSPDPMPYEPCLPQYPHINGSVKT
Text: as §1
For experiment [3], the target named is T1, 363 human kinases (including Aurora A/B/C) (Homo sapiens, UniProt O00141).
T1 sequence (O00141 1-431): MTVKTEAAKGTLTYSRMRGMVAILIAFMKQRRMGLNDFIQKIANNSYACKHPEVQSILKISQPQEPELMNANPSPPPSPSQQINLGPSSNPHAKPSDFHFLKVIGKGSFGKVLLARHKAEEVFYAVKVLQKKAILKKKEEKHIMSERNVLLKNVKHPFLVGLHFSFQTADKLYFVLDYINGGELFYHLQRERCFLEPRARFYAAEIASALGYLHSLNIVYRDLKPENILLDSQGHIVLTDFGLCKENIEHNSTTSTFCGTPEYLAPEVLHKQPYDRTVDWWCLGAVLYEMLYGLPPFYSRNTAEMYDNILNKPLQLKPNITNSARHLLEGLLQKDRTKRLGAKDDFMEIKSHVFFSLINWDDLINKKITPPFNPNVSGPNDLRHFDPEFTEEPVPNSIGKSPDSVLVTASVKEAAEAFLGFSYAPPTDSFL
To be noted: SGK1; for remaining activity at 0.5 µM / remaining activity at 0.1 µM: read-out: % Enzyme Activity (relative to DMSO controls); for remaining activity at 0.1 µM: 100 nM.
Text: as §1

Experiment [4] deals with T2, 363 human kinases (including Aurora A/B/C) (Homo sapiens, UniProt Q08881).
T2 sequence (Q08881 1-620): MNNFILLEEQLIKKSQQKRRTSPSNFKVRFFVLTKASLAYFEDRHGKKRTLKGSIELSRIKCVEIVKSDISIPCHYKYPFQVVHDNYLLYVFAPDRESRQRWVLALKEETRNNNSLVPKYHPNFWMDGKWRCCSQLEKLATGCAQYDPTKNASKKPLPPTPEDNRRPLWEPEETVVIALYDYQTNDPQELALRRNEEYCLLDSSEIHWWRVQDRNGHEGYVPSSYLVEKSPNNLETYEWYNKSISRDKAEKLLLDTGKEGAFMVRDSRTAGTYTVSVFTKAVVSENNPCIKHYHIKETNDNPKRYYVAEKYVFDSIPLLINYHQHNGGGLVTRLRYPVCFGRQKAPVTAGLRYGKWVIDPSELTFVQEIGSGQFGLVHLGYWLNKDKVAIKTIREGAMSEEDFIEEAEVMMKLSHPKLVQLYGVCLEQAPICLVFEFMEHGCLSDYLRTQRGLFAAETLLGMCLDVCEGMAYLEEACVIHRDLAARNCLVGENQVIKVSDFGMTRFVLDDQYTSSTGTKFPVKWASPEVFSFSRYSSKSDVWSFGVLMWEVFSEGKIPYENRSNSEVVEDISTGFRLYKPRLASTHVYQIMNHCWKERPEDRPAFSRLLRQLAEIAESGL
To be noted: ITK; for remaining activity at 0.5 µM / remaining activity at 0.1 µM: read-out: % Enzyme Activity (relative to DMSO controls); for remaining activity at 0.1 µM: 100 nM.
Text: as §1

Experiment [5] addresses T3, 363 human kinases (including Aurora A/B/C) (Homo sapiens, UniProt Q6P3R8).
T3 sequence (Q6P3R8 1-708): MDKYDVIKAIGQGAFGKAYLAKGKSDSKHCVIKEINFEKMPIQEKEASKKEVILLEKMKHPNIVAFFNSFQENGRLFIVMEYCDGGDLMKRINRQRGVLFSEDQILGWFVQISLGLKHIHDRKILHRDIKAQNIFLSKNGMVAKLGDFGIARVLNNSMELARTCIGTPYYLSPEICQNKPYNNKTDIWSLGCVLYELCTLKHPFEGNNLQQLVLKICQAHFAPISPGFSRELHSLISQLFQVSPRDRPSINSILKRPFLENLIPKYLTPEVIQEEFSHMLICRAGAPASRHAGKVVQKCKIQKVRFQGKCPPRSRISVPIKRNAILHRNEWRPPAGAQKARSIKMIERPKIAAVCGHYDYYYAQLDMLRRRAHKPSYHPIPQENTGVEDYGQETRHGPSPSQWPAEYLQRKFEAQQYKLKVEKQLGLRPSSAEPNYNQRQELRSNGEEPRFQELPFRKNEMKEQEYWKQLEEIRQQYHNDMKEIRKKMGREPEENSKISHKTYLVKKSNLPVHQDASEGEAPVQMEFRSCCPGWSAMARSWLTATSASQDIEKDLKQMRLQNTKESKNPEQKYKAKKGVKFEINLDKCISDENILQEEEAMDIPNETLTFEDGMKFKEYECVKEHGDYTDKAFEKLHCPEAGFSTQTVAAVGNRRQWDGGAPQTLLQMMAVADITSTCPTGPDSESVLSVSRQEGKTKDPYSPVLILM
To be noted: NEK5; for remaining activity at 0.5 µM / remaining activity at 0.1 µM: read-out: % Enzyme Activity (relative to DMSO controls); for remaining activity at 0.1 µM: 100 nM.
Text: as §1

Experiment [6] concerns the target 363 human kinases (including Aurora A/B/C) (Homo sapiens, UniProt Q06187). Conditions: BTK, [ATP] 50 µM; for remaining activity at 0.5 µM / remaining activity at 0.1 µM: read-out: % Enzyme Activity (relative to DMSO controls); for remaining activity at 0.1 µM: 100 nM.
Text: as §1
Experiment [7] deals with 363 human kinases (including Aurora A/B/C) (Homo sapiens, UniProt Q9P1W9). Conditions: PIM2; for remaining activity at 0.5 µM / remaining activity at 0.1 µM: read-out: % Enzyme Activity (relative to DMSO controls); for remaining activity at 0.1 µM: 100 nM.
Sequence of 363 human kinases (including Aurora A/B/C) (Homo sapiens, UniProt Q9P1W9) (Q9P1W9 whole entry): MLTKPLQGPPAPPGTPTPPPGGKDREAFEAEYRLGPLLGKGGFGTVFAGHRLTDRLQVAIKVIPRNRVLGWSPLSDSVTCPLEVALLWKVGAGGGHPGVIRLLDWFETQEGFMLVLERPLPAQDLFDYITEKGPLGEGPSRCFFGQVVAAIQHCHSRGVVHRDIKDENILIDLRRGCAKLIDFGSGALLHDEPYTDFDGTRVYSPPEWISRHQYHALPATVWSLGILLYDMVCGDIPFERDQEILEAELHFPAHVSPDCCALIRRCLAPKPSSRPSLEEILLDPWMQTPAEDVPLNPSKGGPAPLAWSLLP
Text: as §1
For experiment [8], the target named is 363 human kinases (including Aurora A/B/C) (Homo sapiens, UniProt Q00534). Conditions: for % Enzyme Activity (relative to DMSO controls) / remaining activity at 0.5 µM: 500 nM; for remaining activity at 0.5 µM / remaining activity at 0.1 µM: read-out: % Enzyme Activity (relative to DMSO controls); for remaining activity at 0.1 µM: 100 nM.
Sequence of 363 human kinases (including Aurora A/B/C) (Homo sapiens, UniProt Q00534) (Q00534 whole entry): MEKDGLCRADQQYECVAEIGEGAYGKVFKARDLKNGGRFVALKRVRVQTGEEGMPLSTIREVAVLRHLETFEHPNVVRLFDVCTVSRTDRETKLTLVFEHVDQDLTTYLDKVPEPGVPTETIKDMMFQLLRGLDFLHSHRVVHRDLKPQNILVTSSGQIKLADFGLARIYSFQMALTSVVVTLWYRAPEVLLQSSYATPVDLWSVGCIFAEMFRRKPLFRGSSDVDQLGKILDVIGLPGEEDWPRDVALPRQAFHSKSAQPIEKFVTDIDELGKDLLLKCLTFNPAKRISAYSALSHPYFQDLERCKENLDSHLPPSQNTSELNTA
Text: as §1
Experiment [9] has as its target T4, 363 human kinases (including Aurora A/B/C) (Homo sapiens, UniProt O15264).
T4 sequence (O15264 1-365): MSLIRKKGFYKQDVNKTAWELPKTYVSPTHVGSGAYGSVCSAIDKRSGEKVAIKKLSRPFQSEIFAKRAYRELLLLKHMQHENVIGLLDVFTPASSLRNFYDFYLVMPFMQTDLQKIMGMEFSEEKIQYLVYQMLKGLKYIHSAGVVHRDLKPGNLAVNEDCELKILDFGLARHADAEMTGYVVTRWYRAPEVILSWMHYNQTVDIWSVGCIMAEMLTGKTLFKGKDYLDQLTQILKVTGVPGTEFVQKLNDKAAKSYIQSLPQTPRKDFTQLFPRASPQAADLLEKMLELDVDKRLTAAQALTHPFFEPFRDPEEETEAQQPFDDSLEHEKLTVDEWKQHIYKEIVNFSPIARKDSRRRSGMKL
Conditions: P38d/MAPK13; for remaining activity at 0.5 µM / remaining activity at 0.1 µM: read-out: % Enzyme Activity (relative to DMSO controls); for remaining activity at 0.1 µM: 100 nM.
Text: as §1

For experiment [10], the target named is 363 human kinases (including Aurora A/B/C) (Homo sapiens, UniProt Q86UX6). To be noted: STK32C/YANK3; for remaining activity at 0.5 µM / remaining activity at 0.1 µM: read-out: % Enzyme Activity (relative to DMSO controls); for remaining activity at 0.1 µM: 100 nM.
Sequence of 363 human kinases (including Aurora A/B/C) (Homo sapiens, UniProt Q86UX6) (Q86UX6 whole entry): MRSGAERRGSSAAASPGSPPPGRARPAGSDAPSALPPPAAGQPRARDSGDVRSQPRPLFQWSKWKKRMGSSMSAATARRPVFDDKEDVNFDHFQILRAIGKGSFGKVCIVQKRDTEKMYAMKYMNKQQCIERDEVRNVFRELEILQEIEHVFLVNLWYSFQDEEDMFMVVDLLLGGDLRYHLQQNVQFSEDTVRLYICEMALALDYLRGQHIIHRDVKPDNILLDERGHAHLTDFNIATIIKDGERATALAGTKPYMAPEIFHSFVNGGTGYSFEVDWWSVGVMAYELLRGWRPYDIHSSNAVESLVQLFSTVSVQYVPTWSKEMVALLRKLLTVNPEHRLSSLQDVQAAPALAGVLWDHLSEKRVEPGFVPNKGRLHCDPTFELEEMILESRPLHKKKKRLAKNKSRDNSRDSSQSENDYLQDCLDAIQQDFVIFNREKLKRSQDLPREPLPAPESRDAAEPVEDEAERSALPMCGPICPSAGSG
Text: as §1

Where two headings read alike, the source gives them in different places.

Sequence of 363 human kinases (including Aurora A/B/C) (Homo sapiens, UniProt Q06187) (Q06187 whole entry): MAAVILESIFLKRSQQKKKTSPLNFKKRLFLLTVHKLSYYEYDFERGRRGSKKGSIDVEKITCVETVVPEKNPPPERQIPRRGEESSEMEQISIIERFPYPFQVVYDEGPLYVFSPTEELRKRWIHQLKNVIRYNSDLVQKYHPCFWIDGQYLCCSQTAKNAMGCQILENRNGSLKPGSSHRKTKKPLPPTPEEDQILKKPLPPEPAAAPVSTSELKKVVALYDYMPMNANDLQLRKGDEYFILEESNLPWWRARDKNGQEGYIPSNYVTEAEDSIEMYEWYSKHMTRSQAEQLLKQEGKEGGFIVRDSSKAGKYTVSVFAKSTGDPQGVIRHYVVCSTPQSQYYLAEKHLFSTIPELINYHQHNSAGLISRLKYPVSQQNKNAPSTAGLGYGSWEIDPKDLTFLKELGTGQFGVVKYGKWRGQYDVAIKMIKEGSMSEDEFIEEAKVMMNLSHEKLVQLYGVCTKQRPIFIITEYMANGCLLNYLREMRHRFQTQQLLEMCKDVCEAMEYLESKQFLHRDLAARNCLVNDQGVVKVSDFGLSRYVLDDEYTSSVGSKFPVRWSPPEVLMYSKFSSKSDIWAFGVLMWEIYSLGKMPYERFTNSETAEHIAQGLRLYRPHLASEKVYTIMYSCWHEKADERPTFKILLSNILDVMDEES

Take `O=C(c1cccc(Cl)c1F)N1CCN(Cc2cccc(Nc3nccs3)n2)CC1` [MK-8745]: the “% Enzyme Activity (relative to DMSO controls)” value in [1] (500 nM) was found to be 90.76%; in experiment [2] (500 nM), 90.67%; in experiment [3] (500 nM), 103.73%; in experiment [4] (500 nM), 102.90%; in experiment [5] (500 nM), 128.29%; in [6] (500 nM) it was 94.23%. Also, the “% Enzyme Activity (relative to DMSO controls)” value amounted to 93.64% in [7] (500 nM); 94.81% in [8] (CDK6/cyclin D1, [ATP] 20 µM); 93.71% in experiment [8] (CDK6/cyclin D3, [ATP] 30 µM); 96.82% in experiment [9] (500 nM); 79.77% in [10] (500 nM). Besides, the remaining activity at 0.5 µM amounted to 90.8% in experiment [1] (500 nM); 92% in [2] (500 nM); 104% in experiment [3] (500 nM); 104% in [4] (500 nM); 130% in experiment [5] (500 nM); 94.5% in experiment [6] (500 nM). Further, the remaining activity at 0.5 µM amounted to 93.8% in experiment [7] (500 nM); 96.4% in [8] (CDK6/cyclin D1, [ATP] 20 µM); 95.7% in experiment [8] (CDK6/cyclin D3, [ATP] 30 µM); 100% in experiment [9] (500 nM); 81.5% in [10] (500 nM).
In the case of `CCn1cc(-c2ccnc3[nH]c(-c4cccc(CN(C)C)c4)cc23)c(-c2ccc(NC(=O)N(C)C)cc2)n1` [GSK1070916], the remaining activity at 0.1 µM in [1] is 99.2%; in experiment [2] it was 43.3%; in experiment [3], 118%; in experiment [4] it was 77.7%; in experiment [5], 59.1%; in [6], 102%. The remaining activity at 0.1 µM came out at 87.2% in [7]; 98.8% in experiment [8] (CDK6/cyclin D1, [ATP] 20 µM); 102% in experiment [8] (CDK6/cyclin D3, [ATP] 30 µM); 91.7% in experiment [9]; 79.9% in [10].
For the compound `O=C(O)[C@]1(Cc2cccc(Nc3nccs3)n2)CC[C@@H](Oc2cccc(Cl)c2F)CC1` [MK-5108], the remaining activity at 0.1 µM was found to be 96.7% in experiment [1]; 39.7% in experiment [2]; 104% in [3]; 89% in [4]; 153% in experiment [5]; 69.8% in [6]. Also, the remaining activity at 0.1 µM in experiment [7] came out at 104%; in experiment [8] (CDK6/cyclin D1, [ATP] 20 µM) it was 90.3%; in [8] (CDK6/cyclin D3, [ATP] 30 µM), 89.7%; in experiment [9], 98.5%; in experiment [10], 124%. Besides, the remaining activity at 0.5 µM in [1] (500 nM) was found to be 67.8%; in [2] (500 nM), 11.2%; in [3] (500 nM) it was 113%; in experiment [4] (500 nM) it was 46.3%; in experiment [5] (500 nM) it was 104%; in [6] (500 nM) it was 30.2%. Also, the remaining activity at 0.5 µM in experiment [7] (500 nM) is 88.5%; in [8] (CDK6/cyclin D1, [ATP] 20 µM) it was 96.2%; in experiment [8] (CDK6/cyclin D3, [ATP] 30 µM), 95.1%; in experiment [9] (500 nM) it was 82.6%; in [10] (500 nM), 96.6%.
